From ChEMBL document CHEMBL5604063, “ASAP - DENV-2 NS2B-NS3 protease fluorescence dose response” (2024)
Values joined by “and” are separate entries in the source; they are usually repeats but may differ in a detail not shown here. Equal entries are not always repeated. Peptide text beside a SMILES is read from it. * marks the point of attachment. pNA = O=[N+]([O-])c1ccc(N*)cc1; Boc = CC(C)(C)OC(=O)*

How the values were obtained:
Genome polyprotein [1] = target: T1, Genome polyprotein (dengue virus type 2, UniProt P29990); format: functional, Thailand/16681/1984
Genome polyprotein [2] = target: T1, Genome polyprotein; format: functional, Thailand/16681/1984; remark: listed apart in the source

T1 sequence (P29990 1346-1475 limits assumed): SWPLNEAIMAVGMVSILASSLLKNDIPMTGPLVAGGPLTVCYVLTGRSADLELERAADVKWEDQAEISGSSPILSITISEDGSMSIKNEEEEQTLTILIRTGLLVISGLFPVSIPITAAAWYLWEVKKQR
T1 sequence (P29990 1476-2093 limits assumed): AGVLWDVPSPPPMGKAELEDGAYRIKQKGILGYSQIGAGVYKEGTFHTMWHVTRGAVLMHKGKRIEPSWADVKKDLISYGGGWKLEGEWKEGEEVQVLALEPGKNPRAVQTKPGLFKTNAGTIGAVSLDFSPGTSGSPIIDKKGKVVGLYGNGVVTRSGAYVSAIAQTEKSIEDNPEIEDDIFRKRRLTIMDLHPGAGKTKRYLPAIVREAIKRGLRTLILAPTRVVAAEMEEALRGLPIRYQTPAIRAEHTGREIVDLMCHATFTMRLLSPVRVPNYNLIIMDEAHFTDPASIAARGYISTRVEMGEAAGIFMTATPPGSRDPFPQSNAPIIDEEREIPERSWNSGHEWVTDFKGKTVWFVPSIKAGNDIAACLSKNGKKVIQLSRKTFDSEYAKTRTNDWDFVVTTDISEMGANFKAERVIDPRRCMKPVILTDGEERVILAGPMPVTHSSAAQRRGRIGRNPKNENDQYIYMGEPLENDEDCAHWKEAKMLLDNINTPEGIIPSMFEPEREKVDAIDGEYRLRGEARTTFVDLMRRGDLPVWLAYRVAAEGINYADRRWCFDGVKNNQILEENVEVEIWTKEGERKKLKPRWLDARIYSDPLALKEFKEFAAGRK

Compound | IC50 (Genome polyprotein [1]) | IC50 (Genome polyprotein [2])
Cc1ccccc1-c1nc2c(C(=O)Nc3ccc4c(c3)CNC4)cc(F)cc2[nH]1 | 3.46 µM and 3.38 µM | –
CO[C@H](C)Cn1cc2c(C(=O)Nc3ccc4c(c3)CNC4)cc(Cl)cc2n1 | – | > 100 µM
NCc1cccc(NC(=O)c2cc(Cl)cc(F)c2F)c1 | > 99.5 µM | > 100 µM
CC(C)CNC(=O)c1cc(Cl)c(F)cc1NS(=O)(=O)c1ccc(Oc2ccccc2Cl)cc1 | 6.13 µM | 14.5 µM and 12.6 µM and 12.2 µM and 23.3 µM and 8.64 µM
N#Cc1cccc(-c2nc3c(C(=O)NCc4ccccn4)cc(Cl)cc3[nH]2)c1 | – | > 100 µM
O=C(Nc1cc(-c2cccnc2)ccn1)c1nc(Br)n2c1CNCC2 | > 99.5 µM | –
N#Cc1cccc(-c2nc3c(C(=O)NCc4cccnc4)cc(Cl)cc3[nH]2)c1 | – | > 100 µM
O=C(Nc1ccc2c(c1)CNC2)c1cc(F)cc2[nH]c(-c3cnccc3O)nc12 | 69.7 µM | –
NCc1csc2cc(C(=O)Nc3ccc4c(c3)CNC4)ccc12 | – | 83.1 µM and > 100 µM
NCc1cccc(NC(=O)c2cc3c(c(NC(=O)OCc4ccccc4)c2)OCC3)c1 | > 99.5 µM | > 100 µM
O=C(Nc1ccc2c(c1)CNC2)c1cc(Cl)cc2c1cnn2C[C@H]1CCCO1 | > 99.5 µM | –
C[C@]1(O)C(=O)Nc2cc(F)cc(C(=O)Nc3ccc4c(c3)CNC4)c21 | > 99.5 µM | –
O=C1Cc2c(cc(F)cc2C(=O)Nc2cc([C@H]3CCOC3)ccn2)N1 | > 99.5 µM | –
O=C(Nc1cc(Cl)cc(-c2cc3cc(C(=O)O)ncn3c2)c1)OCc1ccccc1 | – | 50.1 µM
Cc1c(C(=O)Nc2ccc3c(c2)CS(=O)(=O)C3)cc(C2CC2)n1C | > 99.5 µM | –
CC(C)N1C(=O)C[C@H](C(=O)Nc2cccc(CN)c2)[C@H]1c1ccc(Cl)c(F)c1 | > 99.5 µM | > 100 µM
NCc1cccc(NC(=O)c2cc(Cl)cc(NC(=O)OCc3ccccc3)c2)c1 | 78.2 µM and 61.5 µM | > 100 µM
O=C(Nc1cc(-c2cccnc2)ccn1)c1cc2n(c1)CCC2 | > 99.5 µM | –
CCc1cc(C(=O)Nc2ccc3c(c2)CNC3)cc2cn[nH]c12 | > 99.5 µM | –
Cc1c(C(=O)Nc2cc(-c3cccnc3)ccn2)c2ccccc2n1C | > 99.5 µM | –
O=C(Nc1ccc2c(c1)CNC2)c1cc(F)c2[nH]nnc2c1 | > 99.5 µM | –
Cc1cc(-c2ccc([C@@H](NC(=O)OCc3ccccc3)C(=O)Nc3cccc(CN)c3)cc2)cs1 | 4.01 µM | 30.5 µM and 16.5 µM and 28.3 µM and 18.6 µM and 11.2 µM and 15.5 µM

Compound | IC50 (Genome polyprotein [1]) | IC50 (Genome polyprotein [2])
Cc1c(C(=O)Nc2cccc(-c3cncnc3O)c2)cc(C2CC2)n1C | > 99.5 µM | –
NCc1cc(Cl)cc(C(=O)Nc2cccc(-c3nn[nH]n3)c2)c1 | – | > 100 µM
C#Cc1cc(NC(=O)OCc2ccccc2)cc(C(=O)Nc2cccc(CN)c2)c1 | 81.7 µM | > 100 µM
COc1cc(NC(=O)OCc2ccccc2)cc(C(=O)Nc2cccc(CN)c2)c1OC | > 99.5 µM | > 100 µM
COCCNC(=O)[C@H](Nc1cccc([C@H]2CCOC2)c1)c1cc(Br)cc2[nH]ccc12 | > 99.5 µM | –
O=C(NCc1cccnc1)[C@H](Nc1ccc2c(c1)CNC2)c1cc(Cl)cc2[nH]ncc12 | – | > 100 µM
N[C@H]1CCN(c2ccc(NS(=O)(=O)c3ccc(Oc4ccccc4Cl)cc3)cc2)C1 | – | > 100 µM
O=C(Nc1ccc2c(c1)CNC2)c1cc(F)c2[nH]c(=O)[nH]c2c1 | > 99.5 µM | –
O=C1C[C@H]2CN(C(=O)Nc3ccc4c(c3)CNC4)CC[C@H]2N1 | > 99.5 µM | –
O=C(NCC(F)F)[C@H](Nc1ccc2c(n1)CNC2)c1cc(Cl)cc(C2CC2)c1 | > 296 µM | –
NCc1cccc(NC(=O)c2cc(Cl)ccc2NS(=O)(=O)c2ccccc2)c1 | > 99.5 µM | > 100 µM
N#Cc1cccc(N2CCN(Cc3c[nH]c4ccccc34)CC2)c1 | > 99.5 µM | > 100 µM
Cc1cc(NC(=O)c2cc(C3CC3)n(C)c2C)cnc1N1CCCCC1 | > 99.5 µM | –
Clc1ccc2[nH]ncc2c1[C@@H]1C[C@H]1c1ccc2c(c1)CNC2 | > 99.5 µM | –
O=C(Nc1ccc2c(c1)CNC2)c1cc(Cl)cc2c1NCCC2 | – | > 100 µM
Cc1cc(C(=O)Nc2cc(-c3cccnc3)ccn2)nn1CCN | > 99.5 µM | –
COc1ccc(S(=O)(=O)n2nc(OC(=O)c3ccccc3)cc2N)cc1 | 3.47 µM | 2.53 µM and 2.17 µM and 3.95 µM and 3.07 µM (2×) and 2.23 µM and 3.29 µM and 3.81 µM and 2.28 µM
CSCC[C@H](NC(=O)OC(C)(C)C)C(=O)N1CCC[C@H]1C(=O)Nc1ccc([N+](=O)[O-])cc1 (Boc-Met-Pro-pNA) | > 99.5 µM | –
CSCC[C@H](N)C(=O)N1CCC[C@H]1C(=O)Nc1ccc([N+](=O)[O-])cc1 (H-Met-Pro-pNA) | > 99.5 µM | –
O=C(Nc1ccccc1)OCc1ccccc1 [BENZYL PHENYLCARBAMATE] | > 99.5 µM | –
O=C(Nc1ccccc1)Oc1ccccc1 [PHENYL PHENYLCARBAMATE] | > 59.8 µM | –
